Common to all, as to test: sunitinib treatment, viability of NSCLC cell line (IC50)
In assay [1] the test system is H1703. The class given is cell-based.
In assay [2] the test system is H520. The class given is cell-based.
Assay [3] concerns H358. The class given is cell-based.
For assay [4], the system named is A549. The class given is cell-based.
Assay [5] deals with H157. The class given is cell-based.
In assay [6] the test system is H322C.

By IC50 is commonly meant the concentration that gives 50% inhibition. A lower IC50 goes with higher potency. In the case of `CCN(CC)CCNC(=O)c1c(C)[nH]c(/C=C2\C(=O)Nc3ccc(F)cc32)c1C` [sunitinib, N-[2-(diethylamino)ethyl]-5-[(Z)-(5-fluoro-1,2-dihydro-2-oxo-3H-indol-3-ylidine)methyl]-2,4-dimethyl-1H-pyrrole-3-carboxamide], the IC50 in assay [1] (Homo sapiens, NCI-H1703, H1703 cell line, sunitinib) was below 0.5 µM; in assay [2] (Homo sapiens, NCI-H520, H520 cell line, sunitinib), 1 to 3 µM; in assay [3] (Homo sapiens, NCI-H358, H358 cell line, sunitinib), above 10 µM; in assay [4] (Homo sapiens, A549 cell line, sunitinib), above 10 µM; in assay [5] (Homo sapiens, NCI-H157, H157 cell line, sunitinib), above 10 µM; in assay [6] it was 9 to 10 µM. The “sensitivity of cell line to sunitinib” value in assay [1] (untransfected H1703) was “sensitive (sunitinib sensitive (defined solely for the purposes of this example as having an IC50<3 μM))”; in assay [2] (untransfected H520), “sensitive (sunitinib sensitive (defined solely for the purposes of this example as having an IC50<3 μM))”; in assay [3] (untransfected H358), “resistant (sunitinib resistant (defined solely for the purposes of this example as having IC50>9 μM))”; in assay [4] (untransfected A549), “resistant (sunitinib resistant (defined solely for the purposes of this example as having IC50>9 μM))”; in assay [5] (untransfected H157), “resistant (sunitinib resistant (defined solely for the purposes of this example as having IC50>9 μM))”; in assay [6] (untransfected H322C), “resistant (sunitinib resistant (defined solely for the purposes of this example as having IC50>9 μM))”.

(Values after patent publication US20110124700A1, “SYSTEMS AND METHODS OF CANCER STAGING AND TREATMENT” (priority 2008, published 2011).)
